Measured values as given in patent US20230339952A1, “MACROCYCLIC HETEROCYCLES AND USES THEREOF” (Kumquat Biosciences Inc., priority 2022, published 2023).

Target: SOS1 (Homo sapiens (Human), UniProt Q07889)
Assay: Ras-SOS interaction assay (HTRF), K-Ras G13D utilized
Type: binding
Settings: K-Ras G13D, read-out: SOS1 IC50
Source text: For example, the equilibrium interaction of human SOS1 (hSOS1) with human wildtype Kras or K-Ras mutant (e.g., hK-Ras G12C mutant, or hK-Ras G12C) can be assessed as a proxy or an indication for a subject compound's ability to inhibit SOS. Detection of such interaction is achieved by measuring homogenous time-resolved fluorescence resonance energy transfer (HTRF) from (i) a fluorescence resonance energy transfer (FRET) donor (e.g., antiGST-Europium) that is bound to GST-tagged K-Ras G12C to (ii) a FRET acceptor (e.g., anti-6His-XL665) bound to a His-tagged hSOS1.
A Ras working solution is prepared in assay buffer containing typically 10 nM of the protein construct (e.g., GST-tagged hK-Ras G12C) and 2 nM of the FRET donor (e.g., antiGST-Eu(K) from Cisbio, France). A SOS1 working solution is prepared in assay buffer containing typically 10 nM of the protein construct (e.g., His-hSOS1) and 10 nM of the FRET acceptor (e.g., anti-6His-XL665 from Cisbio, France). An inhibitor control solution is prepared in assay buffer containing 10 nM of the FRET acceptor without the SOS1 protein.
A fixed reaction mixture with or without test compound is transferred into a 384-well plate. Ras working solution is added to all wells of the test plate. SOS1 working solution is added to all wells except for those that are subsequently filled with the inhibitor control solution. […] The ratiometric data (i.e., emission 2 divided by emission 1) is used to calculate IC50 values against SOS1 using GraphPad Prism (GraphPad software).

SOS1, sequence (Q07889 564-1049): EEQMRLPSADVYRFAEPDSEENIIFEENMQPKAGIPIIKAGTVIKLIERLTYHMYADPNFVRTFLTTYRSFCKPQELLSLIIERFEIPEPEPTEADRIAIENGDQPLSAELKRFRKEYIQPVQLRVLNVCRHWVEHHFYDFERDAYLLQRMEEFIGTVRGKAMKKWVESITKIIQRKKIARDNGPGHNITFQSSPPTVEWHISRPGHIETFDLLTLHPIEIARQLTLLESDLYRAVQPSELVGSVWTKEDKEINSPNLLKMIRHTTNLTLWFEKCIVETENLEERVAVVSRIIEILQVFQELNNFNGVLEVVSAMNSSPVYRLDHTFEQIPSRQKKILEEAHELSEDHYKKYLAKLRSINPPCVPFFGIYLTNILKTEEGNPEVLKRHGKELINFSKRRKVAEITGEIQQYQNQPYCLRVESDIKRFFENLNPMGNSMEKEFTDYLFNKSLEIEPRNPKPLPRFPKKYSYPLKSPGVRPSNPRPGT

Compound | IC50
Cc1nc2c3cc(C4CCS(=O)(=O)CC4)c(=O)n(c3n1)CCCCCCCN1CCC(CC1)C(F)(F)c1cccc(c1)[C@@H](C)N2 [Compound 7, (4R)-6^6-(1,1-dioxidotetrahydro-2H-thiopyran-4-yl)-2,2-difluoro-6^2,4-dimethyl-6^7,6^8-dihydro-5-aza-6(4,8)-pyrido[2,3-d]pyrimidina-1(4,1)-piperidina-3(1,3)-benzenacyclotridecaphan-6^7-one] | 100 to 5000 nM
Cc1nc2c3cc(C4(C#N)CC4)c(=O)n(c3n1)CCCC/C=C\CC(C)(O)C(F)(F)c1cccc(c1)[C@@H](C)N2 (stereo partly drawn) [Compound 13, 1-((3R,Z)-5,5-difluoro-6-hydroxy-1^2,3,6-trimethyl-1^7-oxo-1^7,1^8-dihydro-2-aza-1(4,8)-pyrido[2,3-d]pyrimidina-4(1,3)-benzenacyclotridecaphan-8-en-1^6-yl)cyclopropane-1-carbonitrile] | 100 to 5000 nM
COc1cc2nc(C)nc3c2cc1OCCOCCOCCOCCNC(=O)CCOCCNCc1ccccc1-c1cccc(c1)[C@@H](C)N3 [Compound 14, (R)-5^7-methoxy-5^2,3-dimethyl-6,9,12,15,22-pentaoxa-4,18,25-triaza-5(4,6)-quinazolina-1(1,2),2(1,3)-dibenzenacyclohexacosaphan-19-one] | 100 to 5000 nM
Cc1nc2c3cc(C4(C#N)CC4)c(=O)n(c3n1)CCCCCC/C=C\CC(C)(O)C(F)(F)c1cccc(c1)[C@@H](C)N2 (stereo partly drawn) [Compound 18, 1-((3R,Z)-5,5-difluoro-6-hydroxy-1^2,3,6-trimethyl-1^7-oxo-1^7,1^8-dihydro-2-aza-1(4,8)-pyrido[2,3-d]pyrimidina-4(1,3)-benzenacyclopentadecaphan-8-en-1^6-yl)cyclopropane-1-carbonitrile] | 100 to 5000 nM
COc1cc2nc(C)nc3c2cc1OCCOCCOCCOCCOCCNC(=O)CCCCNCc1ccccc1C1=CC=C(S1)C(C)N3 (centres unmarked) [Compound 45, 5^7-methoxy-5^2,3-dimethyl-6,9,12,15,18-pentaoxa-4,21,27-triaza-5(4,6)-quinazolina-2(2,5)-thiophena-1(1,2)-benzenacyclooctacosaphan-22-one] | < 100 nM
COc1cc2nc(C)nc3c2cc1OCCOCCOCCOCCOCCNC(=O)CCCNCc1ccccc1C1=CC=C(S1)C(C)N3 (centres unmarked) [Compound 51, 5^7-methoxy-5^2,3-dimethyl-6,9,12,15,18-pentaoxa-4,21,26-triaza-5(4,6)-quinazolina-2(2,5)-thiophena-1(1,2)-benzenacycloheptacosaphan-22-one] | < 100 nM
C[C@H]1Nc2ncnc3c2cc(N2CCS(=O)(=O)CC2)c(=O)n3CCCOCCCCN2CCC(CC2)C(F)(F)c2cccc1c2F [Compound 69, (4R)-6^6-(1,1-dioxidothiomorpholino)-3^2,2,2-trifluoro-4-methyl-6^7,6^8-dihydro-10-oxa-5-aza-6(4,8)-pyrido[2,3-d]pyrimidina-1(4,1)-piperidina-3(1,3)-benzenacyclotetradecaphan-6^7-one] | < 100 nM
C[C@H]1Nc2ncnc3c2cc(C2CCS(=O)(=O)CC2)c(=O)n3CCNC(=O)CCCN2CCC(CC2)C(F)(F)c2cccc1c2 [Compound 75, (4R)-6^6-(1,1-dioxidotetrahydro-2H-thiopyran-4-yl)-2,2-difluoro-4-methyl-6^7,6^8-dihydro-5,9-diaza-6(4,8)-pyrido[2,3-d]pyrimidina-1(4,1)-piperidina-3(1,3)-benzenacyclotridecaphane-6^7,10-dione] | < 100 nM
C[C@H]1Nc2ncnc3c2cc(C2(C#N)CC2)c(=O)n3CC(=O)N(C)CCCCN2CCC(CC2(C)C)C(F)(F)c2cccc1c2 (stereo partly drawn) [Compound 93, 1-((4R)-2,2-difluoro-1^2,1^2,4,9-tetramethyl-6^7,8-dioxo-6^7,6^8-dihydro-5,9-diaza-6(4,8)-pyrido[2,3-d]pyrimidina-1(4,1)-piperidina-3(1,3)-benzenacyclotridecaphane-6^6-yl)cyclopropane-1-carbonitrile] | < 100 nM
COc1cc2nc(C)nc3c2cc1OCCOCCOCCOCCOCCNCc1ccccc1-c1cccc(c1)C(C)N3 (centres unmarked) [Compound 99, 5^7-methoxy-5^2,3-dimethyl-6,9,12,15,18-pentaoxa-4,21-diaza-5(4,6)-quinazolina-1(1,2),2(1,3)-dibenzenacyclodocosaphane] | 100 to 5000 nM

Now from value to compound:

IC50 | Compound
100 to 5000 nM | Cc1nc2c3cc(C4(C#N)CC4)c(=O)n(c3n1)CCC/C=C\COCC(F)(F)c1cccc(c1F)[C@@H](C)N2 [Compound 1, 1-((3R,Z)-4^2,5,5-trifluoro-1^2,3-dimethyl-1^7-oxo-1^7,1^8-dihydro-7-oxa-2-aza-1(4,8)-pyrido[2,3-d]pyrimidina-4(1,3)-benzenacyclotridecaphan-9-en-16-yl)cyclopropane-1-carbonitrile]
100 to 5000 nM | C[C@H]1Nc2nc(=O)n(c3c2cc(C2(C#N)CC2)c(=O)n3C)CCC/C=C\COCC(F)(F)c2cccc1c2F [Compound 2, 1-((1^3E,3R,9Z)-4^2,5,5-trifluoro-1^8,3-dimethyl-1^2,1^7-dioxo-1^1,1^2,1^7,1^8-tetrahydro-7-oxa-2-aza-1(4,1)-pyrido[2,3-d]pyrimidina-4(1,3)-benzenacyclotridecaphan-9-en-1^6-yl)cyclopropane-1-carbonitrile]
100 to 5000 nM | C[C@H]1Nc2nc(=O)n(c3c2cc(C2(C#N)CC2)c(=O)n3C)CCCCCOCC(F)(F)c2cccc1c2F [Compound 5, 1-((3R,E)-4^2,5,5-trifluoro-1^8,3-dimethyl-1^2,1^7-dioxo-1^1,1^2,1^7,1^8-tetrahydro-7-oxa-2-aza-1(4,1)-pyrido[2,3-d]pyrimidina-4(1,3)-benzenacyclododecaphane-1^6-yl)cyclopropane-1-carbonitrile]
100 to 5000 nM | C[C@H]1Nc2nc(=O)n(c3c2cc(C2(C#N)CC2)c(=O)n3C)CCCCOCC(F)(F)c2cccc1c2F [Compound 37, 1-((3R,E)-4^2,5,5-trifluoro-1^8,3-dimethyl-1^2,1^7-dioxo-1^1,1^2,1^7,1^8-tetrahydro-7-oxa-2-aza-1(4,1)-pyrido[2,3-d]pyrimidina-4(1,3)-benzenacycloundecaphane-1^6-yl)cyclopropane-1-carbonitrile]
100 to 5000 nM | C[C@H]1Nc2nc(=O)n(c3c2cc(C2(C#N)CC2)c(=O)n3C)C/C=C\COCC(F)(F)c2cccc1c2F [Compound 66, 1-((1^3E,3R,9Z)-4^2,5,5-trifluoro-1^8,3-dimethyl-1^2,1^7-dioxo-1^1,1^2,1^7,1^8-tetrahydro-7-oxa-2-aza-1(4,1)-pyrido[2,3-d]pyrimidina-4(1,3)-benzenacycloundecaphan-9-en-1^6-yl)cyclopropane-1-carbonitrile]
100 to 5000 nM | C[C@H]1Nc2nc(=O)n(c3c2cc(C2(C#N)CC2)c(=O)n3C)CCCC/C=C\COCC(F)(F)c2cccc1c2F [Compound 82, 1-((1^3E,3R,9Z)-4^2,5,5-trifluoro-1^8,3-dimethyl-1^2,1^7-dioxo-1^1,1^2,1^7,1^8-tetrahydro-7-oxa-2-aza-1(4,1)-pyrido[2,3-d]pyrimidina-4(1,3)-benzenacyclotetradecaphan-9-en-1^6-yl)cyclopropane-1-carbonitrile]
100 to 5000 nM | C[C@H]1Nc2nc(=O)n(c3c2cc(C2(C#N)CC2)c(=O)n3C)CC/C=C\COCC(F)(F)c2cccc1c2F [Compound 102, 1-((1^3E,3R,9Z)-4^2,5,5-trifluoro-1^8,3-dimethyl-1^2,1^7-dioxo-1^1,1^2,1^7,1^8-tetrahydro-7-oxa-2-aza-1(4,1)-pyrido[2,3-d]pyrimidina-4(1,3)-benzenacyclododecaphan-9-en-1^6-yl)cyclopropane-1-carbonitrile]
